Laboratory results reported in PMC3488358 (Chemical biology & drug design, 2013).
“And” between values parts separate entries of the source, which are not always exact repeats. Equal values may be shown once. Read-outs that look alike come from different tables or passages of the source. Values belong to the compound of their own block, whether it stands above or below them.

How the values were obtained:
[1] = tested on: Mycobacterium intracellulare ATCC 23068; assay: Antibacterial susceptibility testing; assay type: cell-based
P. falciparum (D6 Clone) = assay type: cell-based, Plasmodium falciparum; conditions: read-out: P. falciparum (D6 Clone) IC50; chloroquine-sensitive D6 clone
Candida krusei ATCC 6258 = assay: In vitro antifungal activity; assay type: cell-based
[2] = tested on: Aspergillus fumigatus ATCC 204305; assay: In vitro antifungal activity; assay type: cell-based
[3] = tested on: Staphylococcus aureus ATCC 29213; assay: Antibacterial susceptibility testing; assay type: cell-based
[4] = tested on: Candida glabrata ATCC 90030; assay: In vitro antifungal activity; assay type: cell-based
[5] = tested on: Pseudomonas aeruginosa ATCC 27853; assay: Antibacterial susceptibility testing; assay type: cell-based
[6] = tested on: Candida albicans ATCC 90028; assay: In vitro antifungal activity; assay type: cell-based
[7] = tested on: Cryptococcus neoformans ATCC 90113; assay: In vitro antifungal activity; assay type: cell-based
[8] = tested on: Escherichia coli ATCC 35218; assay: Antibacterial susceptibility testing; assay type: cell-based
[9] = tested on: Methicillin-resistant S. aureus ATCC 33591 (MRSA); assay: Antibacterial susceptibility testing; assay type: cell-based, Staphylococcus aureus
[10] = tested on: Leishmania donovani promastigotes; assay: In vitro antileishmanial activity, Alamar Blue assay; assay type: cell-based; conditions: for IC50: read-out: L. donovani IC50; for IC90: read-out: L. donovani IC90
P. falciparum (W2 Clone) = assay type: cell-based, Plasmodium falciparum; conditions: read-out: P. falciparum (W2 Clone) IC50; chloroquine-resistant W2 clone
HIV-1NL4.3 virus = assay: Anti-HIV activity, p24 antigen capture ELISA in CEM-GFP cells; assay type: cell-based; conditions: CEM-GFP cells infected with HIV-1NL4.3, non-cytotoxic concentration

- IC50 ([1]; read-out: M. intracellulare IC50): 79.5 µM
- IC50 (P. falciparum (D6 Clone)): 14.8 µM
- S. aureus MIC [3]: 80.32 µM
- IC50 ([3]; read-out: S. aureus IC50): 64.1 µM
- IC50 ([7]; read-out: Cryptococcus neoformans IC50): 76.2 µM
- MRSA MIC [9]: 80.3 µM
- IC50 ([9]; read-out: MRSA IC50): 56 µM and 56.1 µM
- IC50 ([10]; promastigotes): 48200 nM
- IC90 ([10]; promastigotes): 124 µM
- IC50 (P. falciparum (W2 Clone)): 13.7 µM
SMILES: CCCCC[C@@H]1C[C@@H]2CC[C@@H]3C[C@H](C)NC(=N1)N32 (racemic) [17l, batzelladine K]
- M. intracellulare MBC [1]: - (“-” = Not active at the highest test concentration of 20 μg/mL)
- M. intracellulare MIC [1]: - (“-” = Not active at the highest test concentration of 20 μg/mL)
- Candida krusei MFC (Candida krusei ATCC 6258): - (“-” = No activity at the highest test concentration of 20 μg/mL)
- Candida krusei MIC (Candida krusei ATCC 6258): - (“-” = No activity at the highest test concentration of 20 μg/mL)
- Aspergillus fumigatus MFC [2]: - (“-” = No activity at the highest test concentration of 20 μg/mL)
- Aspergillus fumigatus MIC [2]: - (“-” = No activity at the highest test concentration of 20 μg/mL)
- S. aureus MBC [3]: - (“-” = Not active at the highest test concentration of 20 μg/mL)
- Candida glabrata MFC [4]: - (“-” = No activity at the highest test concentration of 20 μg/mL)
- Candida glabrata MIC [4]: - (“-” = No activity at the highest test concentration of 20 μg/mL)
- P. aeruginosa IC50 [5]: - (“-” = Not active at the highest test concentration of 20 μg/mL)
- P. aeruginosa MBC [5]: - (“-” = Not active at the highest test concentration of 20 μg/mL)
- P. aeruginosa MIC [5]: - (“-” = Not active at the highest test concentration of 20 μg/mL)
- Candida albicans MFC [6]: - (“-” = No activity at the highest test concentration of 20 μg/mL)
- Candida albicans MIC [6]: - (“-” = No activity at the highest test concentration of 20 μg/mL)
- Cryptococcus neoformans MFC [7]: - (“-” = No activity at the highest test concentration of 20 μg/mL)
- Cryptococcus neoformans MIC [7]: - (“-” = No activity at the highest test concentration of 20 μg/mL)
- E.coli IC50 [8]: - (“-” = Not active at the highest test concentration of 20 μg/mL)
- E.coli MBC [8]: - (“-” = Not active at the highest test concentration of 20 μg/mL)
- E.coli MIC [8]: - (“-” = Not active at the highest test concentration of 20 μg/mL)
- MRSA MBC [9]: - (“-” = Not active at the highest test concentration of 20 μg/mL)
- anti-HIV activity (inhibition of HIV-1) (HIV-1NL4.3 virus): no anti-HIV activity

- IC50 ([10]; Leishmania donovani): 2940 nM
- IC90 ([10]; Leishmania donovani): 5.88 µM
SMILES: N=C(N)c1ccc(OCCCCCOc2ccc(C(=N)N)cc2)cc1 [Pentamidine]

- IC50 ([10]; Leishmania donovani): 173 nM
- IC90 ([10]; Leishmania donovani): 0.358 µM
SMILES: C[C@@H]1[C@H](O)[C@@H](C)/C=C/C=C/C=C/C=C/C=C/C=C/C=C/[C@H](O[C@@H]2O[C@H](C)[C@@H](O)[C@H](N)[C@@H]2O)C[C@@H]2O[C@](O)(C[C@@H](O)C[C@@H](O)[C@H](O)CC[C@@H](O)C[C@@H](O)CC(=O)O[C@H]1C)C[C@H](O)[C@H]2C(=O)O [Amphotericin B]
